The values that follow come from BindingDB's records for doi:10.1074/jbc.M114.573162 (German Institute of Human Nutrition Potsdam-Rehbruecke, 2014).

Molecules are shown by their SMILES.

Usually EC50 stands for the midpoint of the concentration-response curve.

The experiment deals with T1, Olfactory receptor class A-like protein 1 (Zebrafish, UniProt A0A0R4IM31).
T1 sequence (A0A0R4IM31 whole entry): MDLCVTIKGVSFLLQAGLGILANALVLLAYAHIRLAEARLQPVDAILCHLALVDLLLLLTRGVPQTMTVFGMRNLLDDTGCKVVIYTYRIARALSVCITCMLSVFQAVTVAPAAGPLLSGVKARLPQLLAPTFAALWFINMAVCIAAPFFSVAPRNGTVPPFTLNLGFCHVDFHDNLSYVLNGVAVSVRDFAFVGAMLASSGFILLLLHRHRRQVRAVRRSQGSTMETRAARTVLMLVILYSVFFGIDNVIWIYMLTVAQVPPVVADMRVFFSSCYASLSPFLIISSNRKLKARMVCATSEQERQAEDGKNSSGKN
The experiment in a line: Functional Calcium Imaging Assay. To be noted: pH 7.4. The protocol:
Briefly, HEK 293T cells stably expressing the G protein-chimera Gα16gust44 were seeded onto 96-well plates coated with 10 μg/ml of poly-D-lysine. The next day cells were transiently transfected with ORA1, ORA2, or human bitter taste receptor TAS2R16 constructs using Lipofectamine 2000 (Invitrogen). After 24 h the cells were washed with buffer C1 (130 mM NaCl, 5 mM KCl, 10 mM Hepes, pH 7.4, 2 mM CaCl2, 10 mM glucose), and loaded with the calcium-responsive dye Fluo-4 AM in the presence of 1 mM probenecide, an inhibitor of […]. To remove excessive fluorescence dye, cells were washed three times with buffer C1 and transferred into a fluorometric imaging plate reader (FLIPR, Molecular Devices) for measurement. Test substances were dissolved in C1 buffer and the changes in fluorescence after application of test substances were monitored.
`Nc1ccc(CC(=O)O)cc1` [4-Aminophenylacetic acid]: the concentration giving a half-maximal response (EC50) was determined as 91.7 µM. Then `O=C(O)Cc1ccc2c(c1)OCO2` [3,4-Methylenedioxyphenylacetic acid], with 16 µM; and `O=C(O)Cc1ccc(O)cc1` [2-(4-hydroxyphenyl)acetic acid], with 1.9 µM.

Turning to `COc1ccc(CC(=O)O)cc1` [4-Methoxyphenylacetic acid], the 50% effective concentration (EC50) was 16.5 µM. Then `O=C(O)Cc1ccc(Cl)cc1` [2-(4-chlorophenyl)acetic acid], with 16.6 µM; and `O=C(O)CCc1ccc(O)cc1` [3-(4-Hydroxyphenyl)-propionic acid], with 192 µM; and `Cc1ccc(C(=O)CC(=O)O)cc1` [4-Toloylacetic acid], with 14.8 µM. Under `O=C(O)Cc1ccccc1` [Phenylacetate, XIX] stands 30.5 µM; under `O=C(O)Cc1ccc(O)c(O)c1` [SMR000326727], 22.8 µM. As for `CC(C(=O)O)c1ccc(O)cc1` (stereo not given) [Methyl-4-hydroxyphenylacetic acid], the EC50 is 221 µM.
